Experimental data published in article PMC3026633 (Neuropharmacology, 2010).

How the values were obtained:
α1β2P206Cγ2 GABAR = α1β2P206Cγ2 GABAR (Rattus norvegicus, UniProt P18508+P62813+P63138, P230C); assay: Two-electrode voltage clamp of GABA-gated current in Xenopus oocytes; format: cell-based; details: 100nM DMCM, saturating
α1E122Cβ2γ2 GABAR = α1E122Cβ2γ2 GABAR (Rattus norvegicus, UniProt P18508+P62813+P63138, E149C); assay: as above; format: cell-based
wild-type α1β2γ2 GABAR = wild-type α1β2γ2 GABAR (Rattus norvegicus, UniProt P18508+P62813+P63138); details: WT GABARs; DMCM; ref Boileau and Czajkowski, 1999; Hanson and Czajkowski, 2008; cited from earlier work
wild-type α1β2γ2 GABAR, sequence (P62813 28-455): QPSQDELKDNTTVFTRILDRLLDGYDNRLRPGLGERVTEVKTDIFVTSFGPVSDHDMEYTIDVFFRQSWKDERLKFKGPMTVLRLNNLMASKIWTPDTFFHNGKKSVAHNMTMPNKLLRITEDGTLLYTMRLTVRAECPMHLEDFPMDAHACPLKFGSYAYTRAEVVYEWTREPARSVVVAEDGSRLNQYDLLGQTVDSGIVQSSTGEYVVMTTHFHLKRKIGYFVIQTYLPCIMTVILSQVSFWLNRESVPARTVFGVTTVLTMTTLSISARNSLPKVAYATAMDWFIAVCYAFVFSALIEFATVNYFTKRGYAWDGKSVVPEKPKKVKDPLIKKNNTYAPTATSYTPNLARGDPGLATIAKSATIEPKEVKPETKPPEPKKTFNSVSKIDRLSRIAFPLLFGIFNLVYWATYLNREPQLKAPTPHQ
wild-type α1β2γ2 GABAR, sequence (P63138 25-474 limits assumed): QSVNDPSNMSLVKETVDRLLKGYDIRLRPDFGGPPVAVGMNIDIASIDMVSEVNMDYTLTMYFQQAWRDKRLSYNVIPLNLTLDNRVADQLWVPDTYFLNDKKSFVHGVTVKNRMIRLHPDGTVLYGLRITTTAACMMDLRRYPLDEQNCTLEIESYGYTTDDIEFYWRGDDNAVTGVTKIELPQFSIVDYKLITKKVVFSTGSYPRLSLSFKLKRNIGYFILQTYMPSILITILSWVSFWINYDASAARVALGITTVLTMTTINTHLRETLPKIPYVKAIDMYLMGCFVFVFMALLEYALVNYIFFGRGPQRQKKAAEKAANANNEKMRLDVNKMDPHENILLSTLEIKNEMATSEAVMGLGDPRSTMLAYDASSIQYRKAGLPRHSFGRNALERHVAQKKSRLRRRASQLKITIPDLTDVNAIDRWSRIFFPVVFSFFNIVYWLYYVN
wild-type α1β2γ2 GABAR, sequence (P18508 39-466): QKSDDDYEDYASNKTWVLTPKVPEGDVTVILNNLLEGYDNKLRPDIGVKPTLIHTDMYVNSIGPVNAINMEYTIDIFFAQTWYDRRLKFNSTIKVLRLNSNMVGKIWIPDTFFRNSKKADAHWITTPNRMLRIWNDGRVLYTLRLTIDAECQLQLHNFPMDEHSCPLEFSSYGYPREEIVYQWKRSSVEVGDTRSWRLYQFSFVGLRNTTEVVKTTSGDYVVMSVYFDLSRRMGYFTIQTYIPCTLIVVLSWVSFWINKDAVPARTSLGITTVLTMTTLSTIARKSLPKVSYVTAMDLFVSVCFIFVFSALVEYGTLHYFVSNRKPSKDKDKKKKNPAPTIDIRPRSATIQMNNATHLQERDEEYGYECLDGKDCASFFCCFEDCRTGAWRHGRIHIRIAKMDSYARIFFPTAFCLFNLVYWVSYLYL

α1R131Cβ2γ2 GABAR = α1R131Cβ2γ2 GABAR (Rattus norvegicus, UniProt P18508+P62813+P63138, R158C); assay: Two-electrode voltage clamp of GABA-gated current in Xenopus oocytes; format: cell-based; details: 1μM flumazenil
α1R131Cβ2γ2 GABAR, sequence (P62813 28-455 R158C): as the sequence (P62813 28-455) above, with R131C counted along it
α1R131Cβ2γ2 GABAR, sequence (P63138 25-474 limits assumed): as the sequence (P63138 25-474 limits assumed) above
α1R131Cβ2γ2 GABAR, sequence (P18508 39-466): as the sequence (P18508 39-466) above

α1E122Cβ2γ2 GABAR, sequence (P62813 28-455 E149C): as the sequence (P62813 28-455) above, with E122C counted along it
α1E122Cβ2γ2 GABAR, sequence (P63138 25-474 limits assumed): as the sequence (P63138 25-474 limits assumed) above
α1E122Cβ2γ2 GABAR, sequence (P18508 39-466): as the sequence (P18508 39-466) above
α1β2P206Cγ2 GABAR, sequence (P62813 28-455): as the sequence (P62813 28-455) above
α1β2P206Cγ2 GABAR, sequence (P63138 25-474 P230C limits assumed): as the sequence (P63138 25-474 limits assumed) above, with P206C counted along it
α1β2P206Cγ2 GABAR, sequence (P18508 39-466): as the sequence (P18508 39-466) above

## CCc1c(C(=O)OC)ncc2[nH]c3cc(OC)c(OC)cc3c12 [DMCM, 3-carbomethoxy-4-ethyl-6,7-dimethoxy-β-carboline]
α1β2P206Cγ2 GABAR
  inhibition of IGABA (IGABA+DRUG/IGABA): 0.45 fold
α1E122Cβ2γ2 GABAR; 100nM DMCM, saturating
  inhibition of IGABA (IGABA+DRUG/IGABA): 0.45 fold
wild-type α1β2γ2 GABAR
  maximal attenuation of GABA current (IGABA+DRUG/IGABA): 0.62 fold

## CCOC(=O)c1ncn2c1CN(C)C(=O)c1cc(F)ccc1-2 [flumazenil]
α1R131Cβ2γ2 GABAR
  effect on GABA-gated current: had no effect
α1E122Cβ2γ2 GABAR; 1μM flumazenil
  effect on GABA-gated current: had no effect
